The values below come from ChEMBL document CHEMBL1127193, “High-purity porcine pancreatic lipase: novel effects in catalyzing hydrolysis of esters derived from bicyclo[3.2.0]hept-2-EN-6-OLS” (Bioorg Med Chem Lett, 1993).

Experiment [1] deals with T1, Pancreatic triacylglycerol lipase (Homo sapiens) (UniProt P16233).
T1 sequence (whole entry): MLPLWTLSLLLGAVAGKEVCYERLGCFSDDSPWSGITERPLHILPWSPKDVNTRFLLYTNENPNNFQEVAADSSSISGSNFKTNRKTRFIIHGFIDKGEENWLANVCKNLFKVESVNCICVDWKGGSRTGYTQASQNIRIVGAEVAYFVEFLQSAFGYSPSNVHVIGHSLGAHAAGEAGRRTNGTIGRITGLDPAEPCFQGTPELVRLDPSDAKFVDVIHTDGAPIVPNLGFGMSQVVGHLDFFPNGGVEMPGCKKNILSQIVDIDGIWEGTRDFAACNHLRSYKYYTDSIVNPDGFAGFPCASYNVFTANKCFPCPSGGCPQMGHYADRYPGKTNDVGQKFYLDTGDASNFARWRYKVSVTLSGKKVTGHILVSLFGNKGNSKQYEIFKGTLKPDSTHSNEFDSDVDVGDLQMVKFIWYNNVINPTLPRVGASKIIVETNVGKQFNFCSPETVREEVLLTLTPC
Kind of experiment: Tested for hydrolysis with 1.0 ug/mL of PPL (porcine pancreatic lipase) at the compound dose of 0.2 g. The following applies: Sus scrofa; target entry is the homologue from another species.

Experiment [2] addresses T1, Pancreatic triacylglycerol lipase (Homo sapiens). Kind of experiment: Tested for hydrolysis with 1.0 ug/mL of PPL (porcine pancreatic lipase), 2.2 ug/mL of colipase and 4 mM of sodium taurodeoxycholatet (NaTDC) at the compound dose of 0.2 g. The following applies: Sus scrofa; target entry is the homologue from another species.
For experiment [3] the target is unchanged. Kind of experiment: Tested for hydrolysis with 0.2 ug/mL of PPL (porcine pancreatic lipase) at the compound dose of 0.2 g. The conditions noted are these: Sus scrofa; target entry is the homologue from another species.
Experiment [4] shares this target. As to the kind of experiment: Tested for hydrolysis with 0.5 ug/mL of PPL (porcine pancreatic lipase), 1.5 ug/mL of colipase and 4 mM of sodium taurodeoxycholatet (NaTDC) at the compound dose of 0.2 g. The conditions noted are these: Sus scrofa; target entry is the homologue from another species.
Experiment [5] has the same target. Kind of experiment: Tested for hydrolysis with 80 ug/mL of PPL (porcine pancreatic lipase) at the compound dose of 0.1 g. The following applies: Sus scrofa; target entry is the homologue from another species.
The target is the same in experiment [6]. As to the kind of experiment: Tested for hydrolysis with 200 ug/mL of PPL (porcine pancreatic lipase) and sodium taurodeoxycholatet (NaTDC) at the compound dose of 0.2 g. The conditions noted are these: Sus scrofa; target entry is the homologue from another species.
Experiment [7] has the same target. Kind of experiment: Tested for hydrolysis with 20 ug/mL of PPL (porcine pancreatic lipase) and sodium taurodeoxycholatet (NaTDC) at the compound dose of 0.2 g. The following applies: Sus scrofa; target entry is the homologue from another species.
The target of experiment [8] is T2, Pancreatic triacylglycerol lipase (Homo sapiens, UniProt P16233).
T2 sequence (P16233 whole entry): T1 sequence (whole entry)
Kind of experiment: Tested for hydrolysis with 0.2 ug/mL of PPL (porcine pancreatic lipase) at a compound dose of 0.2 g. Details: species or system Sus scrofa. The conditions noted are these: target entry is the homologue from another species.

In experiment [9] the target is T2, Pancreatic triacylglycerol lipase. As to the kind of experiment: Tested for hydrolysis with 0.2 ug/mL of PPL (porcine pancreatic lipase), 1.5 ug/mL of colipase and 4 mM sodium taurodeoxycholatet (NaTDC) at a compound concentration of 0.2 g. Details: species or system Sus scrofa. The conditions noted are these: target entry is the homologue from another species.

Experiment [10] concerns the target T1, Pancreatic triacylglycerol lipase (Homo sapiens). The following applies: Sus scrofa.
Experiment [11] has the same target. The conditions noted are these: Sus scrofa. This is another data set of the same source.

Turning to `CCCC(=O)O[C@@H]1C[C@@H]2C=CC[C@@H]21.CCCC(=O)O[C@@H]1C[C@H]2C=CC[C@@H]21`, the figures for the k cat in [1] and in experiment [2] were 420 s⁻¹ and 400 s⁻¹, respectively.
Turning to `CCCC(=O)O[C@@H]1C[C@@H]2C=CC[C@@H]21`, the figures for the k cat in experiment [3] and in [4] were 3870 s⁻¹ and 3560 s⁻¹, respectively.
`CC(=O)O[C@@H]1C[C@@H]2C=CC[C@@H]21`: in [5], the k cat is less than 9 s⁻¹.
In the case of `CCCC(=O)O[C@H]1C[C@@H]2C=CC[C@H]12`, the k cat in [6] is less than 5 s⁻¹; in experiment [7] it was less than 4 s⁻¹.
In general, kcat refers to the maximal rate divided by the concentration of active sites. For the molecule `CCCC(=O)OCC(COC(=O)CCC)OC(=O)CCC` [TRIBUTYRIN], the values for the kcat in experiment [8] and in [9] were 1100 s⁻¹ and less than 1 s⁻¹, respectively. In addition, the values for the k cat in experiment [10] and in experiment [11] were 4900 s⁻¹ and 5100 s⁻¹, respectively.
